Source: ChEMBL document CHEMBL5321237 (Eur J Med Chem, 2023)
Converted amounts (≈) assume the structure as drawn.

Experiments:
[1] = molecular target: Receptor-type tyrosine-protein kinase FLT3 (Homo sapiens) (UniProt P36888); experiment: Inhibition of autoinhibited human FLT3 binding to streptavidin-coated magnetic beads immobilized biotinylated ligand at 500 nM incubated for 1 hr by qPCR analysis relative to control
[2] = molecular target: T1, Ephrin type-B receptor 6 (Homo sapiens) (UniProt O15197); experiment: Competitive binding affinity to human EPHB6 at 500 nM incubated for 1 hr by qPCR analysis relative to control
T1 sequence (whole entry): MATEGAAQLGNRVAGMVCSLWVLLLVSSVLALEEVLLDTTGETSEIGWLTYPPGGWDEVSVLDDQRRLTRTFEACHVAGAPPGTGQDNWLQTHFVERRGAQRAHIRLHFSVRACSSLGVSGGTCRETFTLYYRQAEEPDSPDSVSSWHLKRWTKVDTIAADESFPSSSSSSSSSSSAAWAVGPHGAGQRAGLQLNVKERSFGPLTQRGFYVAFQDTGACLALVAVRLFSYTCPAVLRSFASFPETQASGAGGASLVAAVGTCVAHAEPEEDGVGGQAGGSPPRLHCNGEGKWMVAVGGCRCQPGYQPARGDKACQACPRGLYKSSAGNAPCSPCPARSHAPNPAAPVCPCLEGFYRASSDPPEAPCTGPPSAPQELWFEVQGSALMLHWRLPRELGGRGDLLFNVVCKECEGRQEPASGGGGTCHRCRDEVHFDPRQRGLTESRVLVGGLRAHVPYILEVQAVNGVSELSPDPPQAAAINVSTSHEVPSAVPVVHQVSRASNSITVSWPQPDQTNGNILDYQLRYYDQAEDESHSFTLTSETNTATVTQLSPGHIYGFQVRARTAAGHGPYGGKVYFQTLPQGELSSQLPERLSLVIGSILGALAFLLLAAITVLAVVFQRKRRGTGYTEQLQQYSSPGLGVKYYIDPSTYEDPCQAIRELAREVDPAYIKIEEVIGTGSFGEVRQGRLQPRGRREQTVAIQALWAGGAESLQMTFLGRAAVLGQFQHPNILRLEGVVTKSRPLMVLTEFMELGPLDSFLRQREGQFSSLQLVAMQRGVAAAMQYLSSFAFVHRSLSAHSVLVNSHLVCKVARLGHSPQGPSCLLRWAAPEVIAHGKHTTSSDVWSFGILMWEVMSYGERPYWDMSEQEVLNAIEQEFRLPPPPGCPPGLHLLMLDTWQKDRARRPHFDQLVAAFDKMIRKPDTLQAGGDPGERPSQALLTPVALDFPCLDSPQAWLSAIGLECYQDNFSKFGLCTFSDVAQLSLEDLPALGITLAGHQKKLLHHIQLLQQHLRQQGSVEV

[3] = molecular target: Platelet-derived growth factor receptor alpha (Homo sapiens) (UniProt P16234); experiment: Inhibition of human PDGFRalpha binding to streptavidin-coated magnetic beads immobilized biotinylated ligand at 500 nM incubated for 1 hr by qPCR analysis relative to control
[4] = Kinetic aqueous solubility of compound at pH 7.4 at 500 uM incubated for 90 mins by spectrophotometry analysis; assay type: physicochemical; conditions: buffer, read-out: Kinetic_solubility
[5] = Metabolic stability in human liver microsomes assessed as intrinsic clearance at 3 uM measured upto 50 mins by LC-MS analysis; assay type: ADME, Microsome
[6] = Metabolic stability in mouse liver microsomes assessed as intrinsic clearance at 3 uM measured upto 50 mins by LC-MS analysis; assay type: ADME, Microsome
[7] = molecular target: T2, Macrophage colony-stimulating factor 1 receptor (Homo sapiens, UniProt P07333); experiment: Inhibition of CSF1R (unknown origin) using FRET-peptide as substrate incubated in presence of ATP by FRET based Z-LYTE assay
[8] = system: Tyrosine-protein kinase ABL1 (Homo sapiens), P00519 [H396P]; experiment: Competitive binding affinity to human ABL1 H396P mutant at 500 nM incubated for 1 hr by qPCR analysis relative to control
[9] = molecular target: Mast/stem cell growth factor receptor Kit (Homo sapiens) (UniProt P10721); experiment: Inhibition of autoinhibited wild type human KIT binding to streptavidin-coated magnetic beads immobilized biotinylated ligand at 500 nM incubated for 1 hr by qPCR analysis relative to control
[10] = molecular target: T3, Macrophage colony-stimulating factor 1 receptor (Mus musculus, UniProt P09581); experiment: Inhibition of CSF1-induced CSF1R signalling in mouse BMDM cells assessed as reduction in ERK1/2 phosphorylation preincubated for 30 mins followed by CSF1 addition and measured after 10 mins; assay type: cell-based
T3 sequence (P09581 whole entry): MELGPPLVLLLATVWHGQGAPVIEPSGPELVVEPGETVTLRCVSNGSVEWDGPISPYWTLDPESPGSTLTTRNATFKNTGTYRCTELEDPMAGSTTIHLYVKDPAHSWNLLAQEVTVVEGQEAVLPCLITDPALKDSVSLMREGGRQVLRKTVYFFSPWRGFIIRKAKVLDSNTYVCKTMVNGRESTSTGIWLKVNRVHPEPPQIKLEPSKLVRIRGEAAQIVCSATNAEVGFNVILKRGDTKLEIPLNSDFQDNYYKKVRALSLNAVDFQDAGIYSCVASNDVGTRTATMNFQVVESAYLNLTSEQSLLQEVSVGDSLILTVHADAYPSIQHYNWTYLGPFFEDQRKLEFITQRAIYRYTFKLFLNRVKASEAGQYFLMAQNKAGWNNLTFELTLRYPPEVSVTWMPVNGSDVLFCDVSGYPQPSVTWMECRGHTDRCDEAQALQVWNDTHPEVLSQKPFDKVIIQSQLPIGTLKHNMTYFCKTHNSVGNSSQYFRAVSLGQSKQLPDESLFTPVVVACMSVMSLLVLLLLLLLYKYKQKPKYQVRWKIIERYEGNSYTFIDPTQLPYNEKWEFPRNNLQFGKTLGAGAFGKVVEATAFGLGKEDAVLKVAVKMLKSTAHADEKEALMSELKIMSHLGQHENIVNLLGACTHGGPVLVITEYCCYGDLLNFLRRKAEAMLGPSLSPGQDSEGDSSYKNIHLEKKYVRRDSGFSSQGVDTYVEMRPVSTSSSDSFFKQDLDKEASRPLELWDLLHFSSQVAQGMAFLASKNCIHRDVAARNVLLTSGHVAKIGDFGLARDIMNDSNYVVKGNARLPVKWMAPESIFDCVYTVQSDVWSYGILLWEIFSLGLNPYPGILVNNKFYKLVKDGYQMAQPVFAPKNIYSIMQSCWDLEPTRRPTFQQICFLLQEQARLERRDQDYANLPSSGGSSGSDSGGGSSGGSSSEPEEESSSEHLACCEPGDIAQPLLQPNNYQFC

[11] = molecular target: T2, Macrophage colony-stimulating factor 1 receptor; experiment: Binding affinity to non-autoinhibited form of CSF1R (unknown origin) assessed as dissociation constant incubated for 1 hr by qPCR based Hill equation analysis
[12] = molecular target: T2, Macrophage colony-stimulating factor 1 receptor; experiment: Binding affinity to autoinhibited form of CSF1R (unknown origin) assessed as dissociation constant incubated for 1 hr by qPCR based Hill equation analysis

T2 sequence (P07333 whole entry): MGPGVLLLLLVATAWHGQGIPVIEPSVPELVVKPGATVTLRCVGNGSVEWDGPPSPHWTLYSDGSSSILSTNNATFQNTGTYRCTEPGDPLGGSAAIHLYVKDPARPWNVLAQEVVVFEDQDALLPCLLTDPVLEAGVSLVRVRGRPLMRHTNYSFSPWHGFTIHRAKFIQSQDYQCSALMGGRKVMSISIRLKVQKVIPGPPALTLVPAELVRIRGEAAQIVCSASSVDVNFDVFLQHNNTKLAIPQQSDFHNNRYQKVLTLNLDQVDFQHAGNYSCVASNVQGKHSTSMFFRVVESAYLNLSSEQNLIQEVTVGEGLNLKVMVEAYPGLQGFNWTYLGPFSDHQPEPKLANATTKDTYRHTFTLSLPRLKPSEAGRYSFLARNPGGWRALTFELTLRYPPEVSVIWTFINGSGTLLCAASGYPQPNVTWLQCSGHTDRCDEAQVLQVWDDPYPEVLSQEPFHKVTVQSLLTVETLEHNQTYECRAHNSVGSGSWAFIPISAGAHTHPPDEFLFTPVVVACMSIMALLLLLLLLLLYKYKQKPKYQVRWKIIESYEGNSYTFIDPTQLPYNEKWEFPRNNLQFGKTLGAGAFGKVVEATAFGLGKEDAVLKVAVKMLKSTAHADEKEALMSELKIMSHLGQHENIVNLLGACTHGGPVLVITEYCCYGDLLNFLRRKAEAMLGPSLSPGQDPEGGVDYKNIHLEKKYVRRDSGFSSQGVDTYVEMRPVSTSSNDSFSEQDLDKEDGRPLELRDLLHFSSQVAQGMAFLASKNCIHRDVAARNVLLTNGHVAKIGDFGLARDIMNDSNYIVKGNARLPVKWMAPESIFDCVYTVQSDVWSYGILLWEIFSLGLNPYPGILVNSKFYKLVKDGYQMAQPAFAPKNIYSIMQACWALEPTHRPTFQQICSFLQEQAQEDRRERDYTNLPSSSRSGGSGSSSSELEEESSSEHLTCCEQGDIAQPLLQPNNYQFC
Chain of Mast/stem cell growth factor receptor Kit (Homo sapiens) (P10721 whole entry): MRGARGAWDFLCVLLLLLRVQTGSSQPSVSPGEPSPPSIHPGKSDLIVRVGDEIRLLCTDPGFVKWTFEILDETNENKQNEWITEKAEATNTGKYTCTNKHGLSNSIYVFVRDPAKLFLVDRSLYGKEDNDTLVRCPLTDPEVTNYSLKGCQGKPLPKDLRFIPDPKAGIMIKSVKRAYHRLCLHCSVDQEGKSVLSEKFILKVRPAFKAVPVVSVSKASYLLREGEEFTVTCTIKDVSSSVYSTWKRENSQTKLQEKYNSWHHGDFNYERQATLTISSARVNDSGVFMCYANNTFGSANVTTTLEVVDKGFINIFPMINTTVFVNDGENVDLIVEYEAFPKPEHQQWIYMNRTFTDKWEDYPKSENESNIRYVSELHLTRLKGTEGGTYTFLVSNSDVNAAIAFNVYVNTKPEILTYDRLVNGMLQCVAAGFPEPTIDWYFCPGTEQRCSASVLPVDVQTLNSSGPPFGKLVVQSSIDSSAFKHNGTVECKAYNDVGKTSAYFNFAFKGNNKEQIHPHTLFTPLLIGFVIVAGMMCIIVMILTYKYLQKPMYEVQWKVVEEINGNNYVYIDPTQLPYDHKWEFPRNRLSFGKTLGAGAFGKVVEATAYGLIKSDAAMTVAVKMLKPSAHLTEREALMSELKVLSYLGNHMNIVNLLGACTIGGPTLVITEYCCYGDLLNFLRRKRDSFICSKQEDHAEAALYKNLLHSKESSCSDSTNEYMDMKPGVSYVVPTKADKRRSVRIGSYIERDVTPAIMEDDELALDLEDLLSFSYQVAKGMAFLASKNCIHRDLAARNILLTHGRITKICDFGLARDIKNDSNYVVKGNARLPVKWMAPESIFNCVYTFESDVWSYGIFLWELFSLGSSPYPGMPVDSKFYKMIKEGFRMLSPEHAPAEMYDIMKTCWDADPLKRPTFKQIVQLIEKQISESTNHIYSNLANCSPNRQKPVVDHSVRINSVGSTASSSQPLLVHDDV
Chain of Receptor-type tyrosine-protein kinase FLT3 (Homo sapiens) (P36888 whole entry): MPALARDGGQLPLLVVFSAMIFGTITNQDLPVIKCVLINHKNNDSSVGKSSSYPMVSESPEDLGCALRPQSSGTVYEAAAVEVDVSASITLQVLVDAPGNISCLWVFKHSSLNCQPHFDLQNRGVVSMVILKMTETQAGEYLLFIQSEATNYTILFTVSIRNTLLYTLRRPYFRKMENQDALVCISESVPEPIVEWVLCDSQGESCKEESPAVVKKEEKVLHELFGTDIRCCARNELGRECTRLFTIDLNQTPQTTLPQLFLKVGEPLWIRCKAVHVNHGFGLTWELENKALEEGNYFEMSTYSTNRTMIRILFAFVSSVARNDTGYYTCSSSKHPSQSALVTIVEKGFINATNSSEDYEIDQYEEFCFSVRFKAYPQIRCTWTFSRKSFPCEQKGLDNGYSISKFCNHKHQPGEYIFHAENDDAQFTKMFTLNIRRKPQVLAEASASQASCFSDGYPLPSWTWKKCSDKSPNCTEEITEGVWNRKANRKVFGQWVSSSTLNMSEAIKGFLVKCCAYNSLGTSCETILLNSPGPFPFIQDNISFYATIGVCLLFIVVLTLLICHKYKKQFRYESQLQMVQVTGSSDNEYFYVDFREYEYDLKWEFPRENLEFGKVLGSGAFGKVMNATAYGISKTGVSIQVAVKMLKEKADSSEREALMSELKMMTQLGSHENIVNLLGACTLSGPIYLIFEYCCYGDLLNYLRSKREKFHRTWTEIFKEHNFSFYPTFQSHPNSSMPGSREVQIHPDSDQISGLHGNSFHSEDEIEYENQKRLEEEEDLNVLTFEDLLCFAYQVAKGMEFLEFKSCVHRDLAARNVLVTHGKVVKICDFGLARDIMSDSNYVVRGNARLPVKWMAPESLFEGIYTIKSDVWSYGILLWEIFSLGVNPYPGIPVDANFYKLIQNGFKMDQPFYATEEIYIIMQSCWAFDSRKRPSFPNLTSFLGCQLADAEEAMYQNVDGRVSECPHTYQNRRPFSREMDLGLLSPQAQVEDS
Chain of Platelet-derived growth factor receptor alpha (Homo sapiens) (P16234 whole entry): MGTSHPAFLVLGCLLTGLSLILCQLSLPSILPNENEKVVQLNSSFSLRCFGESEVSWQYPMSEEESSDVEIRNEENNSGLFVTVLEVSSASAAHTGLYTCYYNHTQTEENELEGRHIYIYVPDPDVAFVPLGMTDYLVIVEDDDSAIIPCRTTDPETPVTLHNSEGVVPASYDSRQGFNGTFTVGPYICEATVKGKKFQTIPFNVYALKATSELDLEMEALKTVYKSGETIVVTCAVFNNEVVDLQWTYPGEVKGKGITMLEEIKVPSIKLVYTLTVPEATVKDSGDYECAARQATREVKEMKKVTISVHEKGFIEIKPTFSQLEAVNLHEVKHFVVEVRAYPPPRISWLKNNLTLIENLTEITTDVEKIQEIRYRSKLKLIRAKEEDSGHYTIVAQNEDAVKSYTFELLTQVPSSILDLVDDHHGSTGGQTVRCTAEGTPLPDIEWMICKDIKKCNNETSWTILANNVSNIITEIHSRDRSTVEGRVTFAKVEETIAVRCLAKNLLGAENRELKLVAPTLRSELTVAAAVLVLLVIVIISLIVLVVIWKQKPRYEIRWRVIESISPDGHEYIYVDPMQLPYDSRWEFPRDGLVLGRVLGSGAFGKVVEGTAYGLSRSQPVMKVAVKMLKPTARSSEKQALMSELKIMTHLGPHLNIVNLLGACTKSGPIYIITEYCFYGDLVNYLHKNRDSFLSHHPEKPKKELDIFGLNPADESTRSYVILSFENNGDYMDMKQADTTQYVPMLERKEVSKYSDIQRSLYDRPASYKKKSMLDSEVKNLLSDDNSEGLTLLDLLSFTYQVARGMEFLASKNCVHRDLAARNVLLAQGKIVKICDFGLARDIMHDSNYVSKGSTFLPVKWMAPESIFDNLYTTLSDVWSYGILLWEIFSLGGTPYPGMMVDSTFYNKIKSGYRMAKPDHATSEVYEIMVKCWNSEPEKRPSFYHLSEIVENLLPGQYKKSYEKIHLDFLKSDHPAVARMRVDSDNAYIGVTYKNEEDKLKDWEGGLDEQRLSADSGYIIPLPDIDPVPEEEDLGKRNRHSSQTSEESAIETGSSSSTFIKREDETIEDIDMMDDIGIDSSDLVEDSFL

inhibition [1]: 12%
Activity [2]: 87%
inhibition [3]: 12%
solubility kinetic at […], 500 µM [4]: 3.5 µM (≈ 1.18 µg/mL)
CLint [5]: 36.4 µL/min/mg
CLint [6]: 243 µL/min/mg
IC50 [7]: 0.5 nM
Activity [8]: 96%
inhibition [9]: 12%
IC50 [10]: 40 nM
Kd [11]: 220 nM
Kd [12]: 17 nM
SMILES: CN(CC1CCCC1)c1ncnc2[nH]c(-c3ccc(CO)cc3)nc12
